Paper PMC7108740, “Exploring the molecular structures that confer ligand selectivity for galanin type II and III receptors” (PLoS ONE, 2020)

Legend:
Format in all cases: cell-based
GALR3 = target: T1, GALR3 (Homo sapiens, UniProt O60755); assay: cAMP assay (inhibition of forskolin-induced cAMP), WT GALR3; design: expressed in transfected cells; host or cells: HEK293 cells stably expressing pGlosensor-22F cAMP plasmid; conditions: Glosensor-22F cAMP HEK293 cells, agonist 10 min then forskolin 10 μM, mean ± SE, SEM
T1 sequence (O60755 1-368): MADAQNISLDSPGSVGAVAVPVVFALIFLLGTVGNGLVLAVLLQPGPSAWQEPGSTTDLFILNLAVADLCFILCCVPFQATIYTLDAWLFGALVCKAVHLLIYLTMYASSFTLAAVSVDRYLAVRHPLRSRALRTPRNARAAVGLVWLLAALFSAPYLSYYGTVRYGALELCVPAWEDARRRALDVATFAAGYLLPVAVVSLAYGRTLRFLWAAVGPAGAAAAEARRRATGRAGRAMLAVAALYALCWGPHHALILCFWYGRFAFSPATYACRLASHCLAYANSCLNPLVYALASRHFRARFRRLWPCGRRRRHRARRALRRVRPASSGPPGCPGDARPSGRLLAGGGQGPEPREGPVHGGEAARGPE
Protocol: SPX-induced or Qu-SPX-induced cyclic adenosine monophosphate (cAMP) mobilization was measured in HEK293 cells stably expressing the pGlosensor^TM-22F cAMP plasmid (Promega Corp., Madison, WI, USA). The Glosensor-22F cAMP HEK293 cells were seeded on 96-well plates at a density of 2.0 × 10^4 cells/well 24 h before transfection. A mixture including 100 ng expression plasmid and lipofectamine 2000 reagent in diluted Opti-MEM (Gibco) was incubated at room temperature for 20 min. The mixtures were added into each well according to the manufacturer's instructions (Invitrogen, CA, USA). After 48 h, Glosensor cAMP substrates were added to the transfected cells in CO2-independent media. After 2 h, the cells were incubated with a range of agonist concentrations or vehicle for 10 min and then exposed to foskolin (10 μM). Luminescence was measured for up to 30 min using a Microplate Reader (BioTek, Winooski, VT, USA).
Data analysis was performed by non-linear regression with a sigmoidal dose-response curve. The concentrations of agonists that induced half-maximal stimulation (EC50) were calculated using the GraphPad PRISM5 software (GraphPad software, Inc., San Diego, CA). All data are presented as the mean ± standard error (SE) of at least three independent experiments. […]

[1] = target: T2, GALR3 single mutant A^191F (Homo sapiens, UniProt O60755, A191F); assay: SRE-luc luciferase assay, GALR3 A191F; conditions: GALR3 A^191F; SRE-luc in HEK293 Gqi cells, ligand 6 h; mean ± S.E.; SEM
T2 construct: expressed in transfected cells; host or cells: HEK293 cells stably expressing Gqi
T2 sequence (O60755 whole entry A191F): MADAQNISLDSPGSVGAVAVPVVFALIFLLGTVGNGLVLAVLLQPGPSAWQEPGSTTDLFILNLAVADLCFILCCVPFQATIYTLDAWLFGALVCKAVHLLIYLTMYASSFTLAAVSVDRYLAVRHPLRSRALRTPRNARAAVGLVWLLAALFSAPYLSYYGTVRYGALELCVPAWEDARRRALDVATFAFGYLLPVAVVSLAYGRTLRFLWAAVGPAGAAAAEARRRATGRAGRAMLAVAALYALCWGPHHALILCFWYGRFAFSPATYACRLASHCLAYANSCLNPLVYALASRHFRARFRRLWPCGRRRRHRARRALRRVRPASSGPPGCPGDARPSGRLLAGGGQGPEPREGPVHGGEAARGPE
Source text: (§1) For domain swapping between GALR2 and GALR3, individual cDNA fragments of interest were amplified by polymerase chain reaction (PCR) with Pfu polymerase (ELPIS Biotech, Daejeon, Korea) and two specific primers, one corresponding to the 5' or 3' end of the GALR2 or GALR3 cDNA and the other to the region of overlap between the two receptors. The two resulting fragments, one from GALR2 and the other from GALR3, were subjected to a second round of PCR to generate the chimeric cDNAs. To construct single, double-, triple-, pentuple-, hextuple-, and septuple-mutant receptors, amino acids of GALR3 were substituted for the amino acids at the corresponding positions in GALR2 using PCR-based site-directed mutagenesis. All of the chimeric constructs were cloned into the pcDNA3 expression vector at HindⅢ and XbaⅠ sites. The DNA sequences of the chimeras were verified by automatic sequencing. […] The luciferase activity in 50 μl cell extract was determined using a luciferase assay system according to the standard protocol for the Synergy 2 Multi-Mode Microplate Reader (BioTek, Winooski, VT, USA). […] The concentrations of agonists that induced half-maximal stimulation (EC50) were calculated using the GraphPad PRISM5 software (GraphPad software, Inc., San Diego, CA). […]

[2] = target: T3, GALR3 single mutant P^267R (Homo sapiens, UniProt O60755, P267R); assay: SRE-luc luciferase assay, GALR3 P267R; conditions: GALR3 P^267R; SRE-luc in HEK293 Gqi cells, ligand 6 h; mean ± S.E.; SEM
T3 construct: expressed in transfected cells; host or cells: HEK293 cells stably expressing Gqi
T3 sequence (O60755 whole entry P267R): as the sequence (O60755 whole entry A191F) above, with F191A, P267R counted along it
Source text: as §1

- EC50 (GALR3): 117 ± 51.4 nM
- EC50 [1]: 91.2 ± 31 nM
- EC50 [2]: 115 ± 48.7 nM
Structure (SMILES): CSCC[C@H](NC(=O)[C@H](C)NC(=O)[C@H](CCC(N)=O)NC(=O)[C@@H]1CCCN1C(=O)[C@@H](NC(=O)[C@H](Cc1c[nH]c2ccccc12)NC(=O)[C@@H](N)CC(N)=O)[C@@H](C)O)C(=O)N[C@@H](CC(C)C)C(=O)N[C@@H](Cc1ccc(O)cc1)C(=O)N[C@@H](CC(C)C)C(=O)N[C@@H](CCCCN)C(=O)NCC(=O)N[C@@H](C)C(=O)N[C@@H](CCC(N)=O)C(N)=O [SPX, reference compound]
